{"source": "patent US11807644B2", "about": "(PMV Pharmaceuticals, Inc., priority 2020, dated 2023)"}
{"target": "T1, recombinant His-tag Y220C p53 DBD protein (Homo sapiens, UniProt P04637, Y220C)", "T1 construct": "recombinant His-tag Y220C p53 DBD protein (amino acids #˜94-312)", "test": "In vitro DNA binding activity assay (TR-FRET): binding of His-tag Y220C p53 DBD to biotin-labeled consensus DNA", "assay_type": "biochemical", "details": "SC150 = concentration to increase DNA binding by […], His-tag Y220C p53 DBD, biotin-labeled consensus DNA"}
{"smiles": "CN1CCN(C[C@@H]2C[C@H]2C(=O)NCc2nc(-c3cc4c(N[C@@H]5CCN(C)C[C@@H]5F)cccc4n3CC(F)(F)F)no2)CC1", "note": "[Compound 234B, (1R,2R)-N-{[3-(4-{[(3S,4R)-3-fluoro-1-methylpiperidin-4-yl]amino}-1-(2,2,2-trifluoroethyl)-1H-indol-2-yl)-1,2,4-oxadiazol-5-yl]methyl}-2-[(4-methylpiperazin-1-yl)methyl]cyclopropane-1-carboxamide]", "Y220C SC150 (μM)": "* (* = 0 μM ≤ SC150 < 0.1 μM)"}
{"smiles": "CN1CC[C@@H](Nc2cccc3c2cc(-c2noc(CNC(=O)C4CC4)n2)n3CC(F)(F)F)[C@@H](F)C1", "note": "(racemic) [Compound 171B, (+/−)-N-{[3-(4-{[(3R,4S)-3-fluoro-1-methylpiperidin-4-yl]amino}-1-(2,2,2-trifluoroethyl)-1H-indol-2-yl)-1,2,4-oxadiazol-5-yl]methyl}cyclopropanecarboxamide]", "Y220C SC150 (μM)": "* (* = 0 μM ≤ SC150 < 0.1 μM)"}
{"smiles": "CN1CC[C@@H](Nc2cccc3c2cc(-c2noc(CNC(=O)c4cnn(C5CCCC5OCCF)c4)n2)n3CC(F)(F)F)[C@@H](F)C1", "note": "(stereo in doubt) [Compound 377B, N-{[3-(4-{[(3S,4R)-3-fluoro-1-methylpiperidin-4-yl]amino}-1-(2,2,2-trifluoroethyl)-1H-indol-2-yl)-1,2,4-oxadiazol-5-yl]methyl}-1-[(1R,2R)-2-(2-fluoroethoxy)cyclopentyl]-1H-pyrazole-4-carboxamide]", "Y220C SC150 (μM)": "* (* = 0 μM ≤ SC150 < 0.1 μM)"}
{"smiles": "CN1CC[C@@H](Nc2cccc3c2cc(-c2noc(CNC(=O)c4csc(CN5CCCC5)c4)n2)n3CC(F)(F)F)[C@@H](F)C1", "note": "[Compound 466B]", "Y220C SC150 (μM)": "* (* = 0 μM ≤ SC150 < 0.1 μM)"}
{"smiles": "CN1CC[C@@H](Nc2cccc3c2cc(-c2ccc(CNC(=O)C4CC4)s2)n3CC(F)(F)F)[C@@H](F)C1", "note": "(racemic) [Compound 103B, (+/−)-N-{[5-(4-{[(3R,4S)-3-fluoro-1-methylpiperidin-4-yl]amino}-1-(2,2,2-trifluoroethyl)-1H-indol-2-yl)thiophen-2-yl]methyl}cyclopropanecarboxamide]", "Y220C SC150 (μM)": "* (* = 0 μM ≤ SC150 < 0.1 μM)"}
{"smiles": "COCC(C)(C)c1cc(C(=O)NCc2nc(-c3cc4c(N[C@@H]5CCOC[C@@H]5F)cccc4n3CC(F)(F)F)no2)cs1", "note": "[Compound 508B, N-{[3-(4-{[(3R,4R)-3-fluorooxan-4-yl]amino}-1-(2,2,2-trifluoroethyl)-1H-indol-2-yl)-1,2,4-oxadiazol-5-yl]methyl}-5-(1-methoxy-2-methylpropan-2-yl)thiophene-3-carboxamide]", "Y220C SC150 (μM)": "* (* = 0 μM ≤ SC150 < 0.1 μM)"}
{"smiles": "CO[C@@H]1CCC[C@@H]1n1cc(C(=O)NCc2nc(-c3cc4c(N[C@@H]5CCN(C)C[C@@H]5F)cccc4n3CC(F)(F)F)no2)cn1", "note": "(racemic) [Compound 370B]", "Y220C SC150 (μM)": "* (* = 0 μM ≤ SC150 < 0.1 μM)"}
{"smiles": "CN1CC[C@@H](Nc2cccc3c2cc(-c2cc(CNc4ccc(S(C)(=O)=O)cc4)cs2)n3CC(F)(F)F)[C@@H](F)C1", "note": "[Compound 284B, N-[(3S,4R)-3-fluoro-1-methylpiperidin-4-yl]-2-(4-{[(4-methanesulfonylphenyl)amino]methyl}thiophen-2-yl)-1-(2,2,2-trifluoroethyl)-1H-indol-4-amine]", "Y220C SC150 (μM)": "** (** = 0.1 μM ≤ SC150 < 0.5 μM)"}
{"smiles": "CN1CC[C@@H](Nc2cccc3c2cc(-c2noc(CNC(=O)c4cnc(N(C)C)s4)n2)n3CC(F)(F)F)[C@@H](F)C1", "note": "[Compound 432B, 2-(dimethylamino)-N-{[3-(4-{[(3S,4R)-3-fluoro-1-methylpiperidin-4-yl]amino}-1-(2,2,2-trifluoroethyl)-1H-indol-2-yl)-1,2,4-oxadiazol-5-yl]methyl)-1,3-thiazole-5-carboxamide]", "Y220C SC150 (μM)": "* (* = 0 μM ≤ SC150 < 0.1 μM)"}
{"smiles": "COCCn1cc(C(=O)NCc2nc(-c3cc4c(N[C@@H]5CCN(C)C[C@@H]5F)cccc4n3CC(F)(F)F)no2)cn1", "note": "[Compound 290B, N-{[3-(4-{[(3S,4R)-3-fluoro-1-methylpiperidin-4-yl]amino}-1-(2,2,2-trifluoroethyl)-1H-indol-2-yl)-1,2,4-oxadiazol-5-yl]methyl}-1-(2-methoxyethyl)-1H-pyrazole-4-carboxamide]", "Y220C SC150 (μM)": "* (* = 0 μM ≤ SC150 < 0.1 μM)"}
{"smiles": "CC1(n2ccc(C(=O)NCc3nc(-c4cc5c(N[C@@H]6CCNC[C@@H]6F)cccc5n4CC(F)(F)F)no3)c2)CCOCC1", "note": "[Compound 477B, N-{[3-(4-{[(3S,4R)-3-fluoropiperidin-4-yl]amino}-1-(2,2,2-trifluoroethyl)-1H-indol-2-yl)-1,2,4-oxadiazol-5-yl]methyl}-1-(4-methyloxan-4-yl)-1H-pyrrole-3-carboxamide]", "Y220C SC150 (μM)": "* (* = 0 μM ≤ SC150 < 0.1 μM)"}
{"smiles": "CN1CC[C@@H](Nc2cccc3c2cc(-c2noc(CNC(=O)c4ccn(CCF)c4)n2)n3CC(F)(F)F)[C@@H](F)C1", "note": "[Compound 205B, N-{[3-(4-{[(3S,4R)-3-fluoro-1-methylpiperidin-4-yl]amino}-1-(2,2,2-trifluoroethyl)-1H-indol-2-yl)-1,2,4-oxadiazol-5-yl]methyl}-1-(2-fluoroethyl)-1H-pyrrole-3-carboxamide]", "Y220C SC150 (μM)": "* (* = 0 μM ≤ SC150 < 0.1 μM)"}
{"smiles": "CC1(n2ccc(C(=O)NCc3nc(-c4cc5c(N[C@@H]6CCOC[C@@H]6F)cccc5n4CC(F)(F)F)no3)c2)CCOCC1", "note": "(stereo in doubt) [Compound 494B, N-((3-(4-(((3R,4R)-3-fluorotetrahydro-2H-pyran-4-yl)amino)-1-(2,2,2-trifluoroethyl)-1H-indol-2-yl)-1,2,4-oxadiazol-5-yl)methyl)-1-(4-methyltetrahydro-2H-pyran-4-yl)-1H-pyrrole-3-carboxamide]", "Y220C SC150 (μM)": "* (* = 0 μM ≤ SC150 < 0.1 μM)"}
{"smiles": "COCC(C)(C)n1ccc(C(=O)NCc2nc(-c3cc4c(N[C@@H]5CN(C)CC[C@@H]5F)cccc4n3CC(F)(F)F)no2)c1", "note": "[Compound 417B, N-{[3-(4-{[(3R,4S)-4-fluoro-1-methylpiperidin-3-yl]amino}-1-(2,2,2-trifluoroethyl)-1H-indol-2-yl)-1,2,4-oxadiazol-5-yl]methyl}-1-(1-methoxy-2-methylpropan-2-yl)-1H-pyrrole-3-carboxamide]", "Y220C SC150 (μM)": "* (* = 0 μM ≤ SC150 < 0.1 μM)"}
{"smiles": "C[C@H]1CN(C)CC[C@H]1Nc1cccc2c1cc(-c1noc(CNC(=O)c3ccn(C(C)(C)C)c3)n1)n2CC(F)(F)F", "note": "[Compound 514B, 1-tert-butyl-N-{[3-(4-{[(3S,4R)-1,3-dimethylpiperidin-4-yl]amino}-1-(2,2,2-trifluoroethyl)-1H-indol-2-yl)-1,2,4-oxadiazol-5-yl]methyl}-1H-pyrrole-3-carboxamide]", "Y220C SC150 (μM)": "* (* = 0 μM ≤ SC150 < 0.1 μM)"}
{"smiles": "CN1CC[C@@H](Nc2cccc3c2cc(-c2noc(CNC(=O)c4csc(N(C)C(C)(C)C)n4)n2)n3CC(F)(F)F)[C@@H](F)C1", "note": "[Compound 528B, 2-[tert-butyl(methyl)amino]-N-{[3-(4-{[(3S,4R)-3-fluoro-1-methylpiperidin-4-yl]amino}-1-(2,2,2-trifluoroethyl)-1H-indol-2-yl)-1,2,4-oxadiazol-5-yl]methyl}-1,3-thiazole-4-carboxamide]", "Y220C SC150 (μM)": "* (* = 0 μM ≤ SC150 < 0.1 μM)"}
{"smiles": "CC(C)(C)n1ccc(C(=O)NCc2nc(-c3cc4c(N[C@H]5CCOC[C@H]5F)cccc4n3CC(F)(F)F)no2)c1", "note": "[Compound 492B, 1-tert-butyl-N-{[3-(4-{[(3S,4S)-3-fluorooxan-4-yl]amino}-1-(2,2,2-trifluoroethyl)-1H-indol-2-yl)-1,2,4-oxadiazol-5-yl]methyl}-1H-pyrrole-3-carboxamide]", "Y220C SC150 (μM)": "* (* = 0 μM ≤ SC150 < 0.1 μM)"}
{"smiles": "Cc1nc2c(s1)CC(Nc1cccc3c1cc(-c1noc(CNC(=O)c4ccn(C(C)(C)C)c4)n1)n3CC(F)(F)F)CC2", "note": "(stereo not drawn) [Compound 368B, 1-tert-butyl-N-[(3-{4-[(2-methyl-4,5,6,7-tetrahydro-1,3-benzothiazol-6-yl)amino]-1-(2,2,2-trifluoroethyl)-1H-indol-2-yl}-1,2,4-oxadiazol-5-yl)methyl]-1H-pyrrole-3-carboxamide]", "Y220C SC150 (μM)": "*** (*** = 0.5 μM ≤ SC150 < 1 μM)"}
{"smiles": "COCC(C)(C)n1ccc(C(=O)NCc2nc(-c3cc4c(N[C@@H]5CCN(C)C[C@@H]5F)cccc4n3CC(F)(F)F)no2)c1", "note": "[Compound 383B, N-{[3-(4-{[(3S,4R)-3-fluoro-1-methylpiperidin-4-yl]amino}-1-(2,2,2-trifluoroethyl)-1H-indol-2-yl)-1,2,4-oxadiazol-5-yl]methyl}-1-(1-methoxy-2-methylpropan-2-yl)-1H-pyrrole-3-carboxamide]", "Y220C SC150 (μM)": "* (* = 0 μM ≤ SC150 < 0.1 μM)"}
{"smiles": "CN1CC[C@H](Nc2cccc3c2cc(-c2nnc(CNC(=O)c4cccs4)o2)n3CC(F)(F)F)[C@H](F)C1", "note": "(racemic) [Compound 120B, (+/−)-N-{[5-(4-{[(3R, 4S)-3-fluoro-1-methylpiperidin-4-yl]amino}-1-(2,2,2-trifluoroethyl)-1H-indol-2-yl)-1,3,4-oxadiazol-2-yl]methyl}thiophene-2-carboxamide]", "Y220C SC150 (μM)": "** (** = 0.1 μM ≤ SC150 < 0.5 μM)"}
{"smiles": "CN1CCC(Nc2cccc3c2cc(-c2nnc(CNC(=O)C4CC4)s2)n3CC(F)(F)F)CC1", "note": "[Compound 35B, N-[(5-{4-[(1-methylpiperidin-4-yl)amino]-1-(2,2,2-trifluoroethyl)-1H-indol-2-yl}-1,3,4-thiadiazol-2-yl)methyl]cyclopropanecarboxamide]", "Y220C SC150 (μM)": "* (* = 0 μM ≤ SC150 < 0.1 μM)"}
{"target": "T1, recombinant His-tag Y220C p53 DBD protein", "test": "In vitro DNA binding activity assay (TR-FRET): binding of His-tag Y220C p53 DBD to biotin-labeled consensus DNA", "assay_type": "biochemical", "details": "concentration to increase DNA binding by […], incubated at either 27° C. or 29° C. for 60 min"}
{"smiles": "NC(=O)c1ccc(-c2cc3c(NC4CCS(=O)(=O)CC4)cccc3n2CC(F)(F)F)cc1", "note": "[Compound 1A, 4-{4-[(1,1-dioxo-1λ^6-thian-4-yl)amino]-1-(2,2,2-trifluoroethyl)-1H-indol-2-yl}benzamide]", "SC150 (μM)": "++++ (++++ = 10 μM ≤ SC150 < 35 μM)"}
{"smiles": "O=C(NCc1ccc(-c2cc3c(NC4CCS(=O)(=O)CC4)cccc3n2CC(F)(F)F)cc1)Nc1ccccc1", "note": "[Compound 19A, 3-[(4-{4-[(1,1-dioxo-1λ^6-thian-4-yl)amino]-1-(2,2,2-trifluoroethyl)-1H-indol-2-yl}phenyl)methyl]-1-phenylurea]", "SC150 (μM)": "+ (+ = 0 μM ≤ SC150 < 2 μM)"}
{"smiles": "N#Cc1cccc(-c2cc3c(NC4CCS(=O)(=O)CC4)cccc3n2CC(F)(F)F)c1", "note": "[Compound 10A, 3-{4-[(1,1-dioxo-1λ^6-thian-4-yl)amino]-1-(2,2,2-trifluoroethyl)-1H-indol-2-yl}benzonitrile]", "SC150 (μM)": "++++ (++++ = 10 μM ≤ SC150 < 35 μM)"}
